Measured values: patent US10987359B2, “Oxadiazepinone derivatives and methods of treating hepatitis B infections” (priority 2016, dated 2021)

Each compound was assayed on HBV (assay: HBV replication inhibition assay (BDNA assay) in HepG2.2.15 cells). Conditions: Hepatitis B virus, HepG2.2.15, HBV replication assay (BDNA assay), HepG2.2.15 cells; read-out: DNA EC50.
Format: cell-based
Method: HBV replication inhibition by the disclosed compounds were determined in cells infected or transfected with HBV or cells with stably integrated HBV, such as HepG2.2.15 cells (Sells et al. 1987). In this example, HepG2.2.15 cells were maintained in cell culture medium containing 10% fetal bovine serum (FBS), Geneticin, L-glutamine, penicillin and streptomycin. HepG2.2.15 cells were seeded in 96-well plates at a density of 40,000 cells/well and were treated with serially diluted compounds at a final DMSO concentration of 0.5% either alone or in combination by adding drugs in a checker box format. Cells were incubated with compounds for three days, after which medium was removed and fresh medium containing compounds was added to cells and incubated for another three days. At day 6, supernatant was removed and treated with DNase at 37° C. for 60 minutes, followed by enzyme inactivation at 75° C. for 15 minutes. Encapsidated HBV DNA was released from the virions and covalently linked HBV polymerase by incubating in lysis buffer (Affymetrix QS0010) containing 2.5 μg proteinase K at 50° C. for 40 minutes. HBV DNA was denatured by addition of 0.2 M NaOH and detected using a branched DNA (BDNA) QuantiGene assay kit according to manufacturer recommendation (Affymetrix). HBV DNA levels were also quantified using qPCR, based on amplification of encapsidated HBV DNA extraction with QuickExtraction Solution (Epicentre Biotechnologies) and amplification of HBV DNA using HBV specific PCR probes that can hybridize to HBV DNA and a fluorescently labeled probe for quantitation. In addition, cell viability of HepG2.2.15 cells incubated with test compounds alone or in combination was determined by using CellTitre-Glo reagent according to the manufacturer protocol (Promega). The mean background signal from wells containing only culture medium was subtracted from all other samples, and percent inhibition at each compound concentration was calculated by normalizing to signals from HepG2.2.15 cells treated with 0.5% DMSO using equation E1. % inhibition=(DMSOave−Xi)/DMSOave×100% E1: […]
where DMSOave is the mean signal calculated from the wells that were treated with DMSO control (0% inhibition control) and Xi is the signal measured from the individual wells. EC50 values, effective concentrations that achieved 50% inhibitory effect, were determined by non-linear fitting using Graphpad Prism software (San Diego, Calif.) and equation E2: Y=Y min+(Y max−Y min)/(1+10(Log EC50−X)×HillSlope) E2: […]
where Y represents percent inhibition values and X represents the logarithm of compound concentrations.
Selected disclosed compounds were assayed in the HBV replication assay (BDNA assay), as described above, and a representative group of these active compounds is shown in Table 7. […] In Table 7, “A” represents 1<EC50≤100; “B” represents 100<EC50≤500; “C” represents 500<EC50≤1000; and “D” represents EC50>1000.

`Cc1c(F)ccc(NC(=O)N2CCc3nn4c(c3C2)C(=O)N(C)OC(CO)C4)c1F` (single isomer, unassigned) [Compound 142_E1, (S*)—N-(2,4-difluoro-3-methylphenyl)-4-(hydroxymethyl)-2-methyl-1-oxo-1,4,5,8,9,11-hexahydropyrido[4′,3′:3,4]pyrazolo[5,1-d][1,2,5]oxadiazepine-10(2H)-carboxamide] and `Cc1c(F)c(F)cc(NC(=O)N2CCc3nn4c(c3C2)C(=O)N(C)OC(CO)C4)c1F` (single isomer, unassigned) [Compound 144_E1, (S*)-4-(hydroxymethyl)-2-methyl-1-oxo-N-(2,4,5-trifluoro-3-methylphenyl)-1,4,5,8,9,11-hexahydropyrido[4′,3′:3,4]pyrazolo[5,1-d][1,2,5]oxadiazepine-10(2H)-carboxamide] fall in the same range of EC50: 1 to 100 nM for the first, 1 to 100 nM for the second.

`Cc1cc(NC(=O)N2CCc3nn4c(c3C2)C(=O)N(C)OC(CO)C4)c(F)cc1F` (single isomer, unassigned) [Compound 143_E1, (S*)—N-(2,4-difluoro-5-methylphenyl)-4-(hydroxymethyl)-2-methyl-1-oxo-1,4,5,8,9,11-hexahydropyrido[4′,3′:3,4]pyrazolo[5,1-d][1,2,5]oxadiazepine-10(2H)-carboxamide] and `CN1OC(CO)Cn2nc3c(c2C1=O)CN(C(=O)Nc1cc(C(F)(F)F)c(F)cc1F)CC3` (single isomer, unassigned) [Compound 147_E1, (S*)—N-(2,4-difluoro-5-(trifluoromethyl)phenyl)-4-(hydroxymethyl)-2-methyl-1-oxo-1,4,5,8,9,11-hexahydropyrido[4′,3′:3,4]pyrazolo[5,1-d][1,2,5]oxadiazepine-10(2H)-carboxamide] fall in the same range of EC50: 1 to 100 nM for the first, 1 to 100 nM for the second.

First: CN1OC(CO)Cn2nc3c(c2C1=O)CN(C(=O)Nc1cc(C#N)ccc1F)CC3 (single isomer, unassigned) [Compound 145_E1, (S*)—N-(5-cyano-2-fluorophenyl)-4-(hydroxymethyl)-2-methyl-1-oxo-1,4,5,8,9,11-hexahydropyrido[4′,3′:3,4]pyrazolo[5,1-d][1,2,5]oxadiazepine-10(2H)-carboxamide]
Second: CN1OC(CO)Cn2nc3c(c2C1=O)CN(C(=O)Nc1cccc(C#N)c1F)CC3 (single isomer, unassigned) [Compound 146_E1, (S*)—N-(3-cyano-2-fluorophenyl)-4-(hydroxymethyl)-2-methyl-1-oxo-1,4,5,8,9,11-hexahydropyrido[4′,3′:3,4]pyrazolo[5,1-d][1,2,5]oxadiazepine-10(2H)-carboxamide]
The EC50 of the first is higher: over 1000 nM for the first, 1 to 100 nM for the second. The second is the more potent here.

Compared with `CN1OC(CO)Cn2nc3c(c2C1=O)CN(C(=O)Nc1cc(C(F)(F)F)ccc1F)CC3` (single isomer, unassigned) [Compound 148_E1, (S*)—N-(2-fluoro-5-(trifluoromethyl)phenyl)-4-(hydroxymethyl)-2-methyl-1-oxo-1,4,5,8,9,11-hexahydropyrido[4′,3′:3,4]pyrazolo[5,1-d][1,2,5]oxadiazepine-10(2H)-carboxamide], `CN1OC(CO)Cn2nc3c(c2C1=O)CN(C(=O)Nc1ccc(F)c(C(F)(F)F)c1F)CC3` (single isomer, unassigned) [Compound 149_E1, (S*)—N-(2,4-difluoro-3-(trifluoromethyl)phenyl)-4-(hydroxymethyl)-2-methyl-1-oxo-1,4,5,8,9,11-hexahydropyrido[4′,3′:3,4]pyrazolo[5,1-d][1,2,5]oxadiazepine-10(2H)-carboxamide] is lower in EC50: 100 to 500 nM for the first, 1 to 100 nM for the second.

`CN1OC(CO)Cn2nc3c(c2C1=O)CN(C(=O)Nc1cc(Br)ncc1F)CC3` (single isomer, unassigned) [Compound 150_E1, (S*)—N-(2-bromo-5-fluoropyridin-4-yl)-4-(hydroxymethyl)-2-methyl-1-oxo-1,4,5,8,9,11-hexahydropyrido[4′,3′:3,4]pyrazolo[5,1-d][1,2,5]oxadiazepine-10(2H)-carboxamide] and `CN1OC(CO)Cn2nc3c(c2C1=O)CN(C(=O)Nc1cc(F)c(F)c(F)c1F)CC3` (single isomer, unassigned) [Compound 151_E1, (S*)-4-(hydroxymethyl)-2-methyl-1-oxo-N-(2,3,4,5-tetrafluorophenyl)-1,4,5,8,9,11-hexahydropyrido[4′,3′:3,4]pyrazolo[5,1-d][1,2,5]oxadiazepine-10(2H)-carboxamide] fall in the same range of EC50: 1 to 100 nM for the first, 1 to 100 nM for the second.

Compared with `C[C@@H]1Cc2nn3c(c2CN1C(=O)Nc1ccc(F)c(Cl)c1F)C(=O)N(C)OC(C(=O)N(C)CC(F)F)C3` (single isomer, unassigned) [Compound 152_D1, (4S*,9R)—N10-(3-chloro-2,4-difluorophenyl)-N4-(2,2-difluoroethyl)-N4,2,9-trimethyl-1-oxo-1,4,5,8,9,11-hexahydropyrido[4′,3′:3,4]pyrazolo[5,1-d][1,2,5]oxadiazepine-4,10(2H)-dicarboxamide], `CNC(=O)C1Cn2nc3c(c2C(=O)N(C)O1)CN(C(=O)Nc1ccc(F)c(C#N)c1F)[C@H](C)C3` (single isomer, unassigned) [Compound 156_D1, (4S*,9R)—N10-(3-cyano-2,4-difluorophenyl)-N4,2,9-trimethyl-1-oxo-1,4,5,8,9,11-hexahydropyrido[4′,3′:3,4]pyrazolo[5,1-d][1,2,5]oxadiazepine-4,10(2H)-dicarboxamide] is higher in EC50: 1 to 100 nM for the first, over 1000 nM for the second.

`CC(=O)NCC1Cn2nc3c(c2C(=O)N(C)O1)CN(C(=O)Nc1ccc(F)c(C#N)c1F)CC3` (single isomer, unassigned) [Compound 167_E1, (S*)-4-(acetamidomethyl)-N-(3-cyano-2,4-difluorophenyl)-2-methyl-1-oxo-1,4,5,8,9,11-hexahydropyrido[4′,3′:3,4]pyrazolo[5,1-d][1,2,5]oxadiazepine-10(2H)-carboxamide] and `CC(=O)NCC1Cn2nc3c(c2C(=O)N(C)O1)CN(C(=O)Nc1ccc(F)c(Cl)c1F)CC3` (single isomer, unassigned) [Compound 169_E1, (S*)-4-(acetamidomethyl)-N-(3-chloro-2,4-difluorophenyl)-2-methyl-1-oxo-1,4,5,8,9,11-hexahydropyrido[4′,3′:3,4]pyrazolo[5,1-d][1,2,5]oxadiazepine-10(2H)-carboxamide] fall in the same range of EC50: 1 to 100 nM for the first, 1 to 100 nM for the second.

`CC(=O)NCC1Cn2nc3c(c2C(=O)N(C)O1)CN(C(=O)Nc1ccc(F)c(C#N)c1)CC3` (single isomer, unassigned) [Compound 168_E1, (S*)-4-(acetamidomethyl)-N-(3-cyano-4-fluorophenyl)-2-methyl-1-oxo-1,4,5,8,9,11-hexahydropyrido[4′,3′:3,4]pyrazolo[5,1-d][1,2,5]oxadiazepine-10(2H)-carboxamide] and `CC(=O)NCC1Cn2nc3c(c2C(=O)N(C)O1)CN(C(=O)Nc1ccc(F)c(Br)c1)CC3` (single isomer, unassigned) [Compound 171_E1, (S*)-4-(acetamidomethyl)-N-(3-bromo-4-fluorophenyl)-2-methyl-1-oxo-1,4,5,8,9,11-hexahydropyrido[4′,3′:3,4]pyrazolo[5,1-d][1,2,5]oxadiazepine-10(2H)-carboxamide] fall in the same range of EC50: 1 to 100 nM for the first, 1 to 100 nM for the second.

`CC(=O)NCC1Cn2nc3c(c2C(=O)N(C)O1)CN(C(=O)Nc1ccc(F)c(Br)c1F)CC3` (single isomer, unassigned) [Compound 170_E1, (S*)-4-(acetamidomethyl)-N-(3-bromo-2,4-difluorophenyl)-2-methyl-1-oxo-1,4,5,8,9,11-hexahydropyrido[4′,3′:3,4]pyrazolo[5,1-d][1,2,5]oxadiazepine-10(2H)-carboxamide] and `CC(=O)NCC1Cn2nc3c(c2C(=O)N(C)O1)CN(C(=O)Nc1ccc(F)c(C(F)(F)F)c1F)CC3` (single isomer, unassigned) [Compound 172_E1, (S*)-4-(acetamidomethyl)-N-(2,4-difluoro-3-(trifluoromethyl)phenyl)-2-methyl-1-oxo-1,4,5,8,9,11-hexahydropyrido[4′,3′:3,4]pyrazolo[5,1-d][1,2,5]oxadiazepine-10(2H)-carboxamide] fall in the same range of EC50: 1 to 100 nM for the first, 1 to 100 nM for the second.

With `CC(=O)NCC1Cn2nc3c(c2C(=O)N(C)O1)CN(C(=O)Nc1cc(Cl)c(F)cc1F)CC3` (single isomer, unassigned) [Compound 173_E1, (S*)-4-(acetamidomethyl)-N-(5-chloro-2,4-difluorophenyl)-2-methyl-1-oxo-1,4,5,8,9,11-hexahydropyrido[4′,3′:3,4]pyrazolo[5,1-d][1,2,5]oxadiazepine-10(2H)-carboxamide] the EC50 was 1 to 100 nM.
